Data reported in patent US20240360137A1 (Novartis AG, priority 2023, published 2024).

Columns and labels:
[1] = system: RB phosphorylation (Ser 807/811) in OVCAR3 xenograft tumors; assay: In vivo pharmacodynamic assessment in Cyclin E amplified OVCAR3 xenograft model (RB phosphorylation by MSD); parameters: species or system NSG mice; settings: Mus musculus, 3 days, 1 hour after the last dose; for inhibition at 30 mg/kg: OVCAR-3, 30 mg/kg twice daily (BID) oral
From the text: Cyclin-dependent kinase 2 (CDK2) is a member of the protein kinase family. It plays an important role in regulating various events of the eukaryotic cell division cycle. CDK2 is involved in the inactivation of the retinoblastoma protein (RB) by phosphorylation which then allows for the G1 to S phase transition of the cell cycle. Overexpression of cyclin E, the obligate binding partner of CDK2, can cause abnormal regulation of the cell cycle, which is directly associated with hyperproliferation of cancer cells. Therefore, CDK2 is regarded as a potentially impactful therapeutic target for cancer treatment. The purpose of these studies was to evaluate the PK/PD relationship of CDK2 inhibitors in Cyclin E amplified cancer cell lines in vivo in immunodeficient mice. Plasma and tumor tissues were collected for PK analysis and PD assays (read out of RB phosphorylation inhibition) after 3 days of dosing of the CDK2 inhibitor.
(§1) The Cyclin E amplified ovarian cancer cell line OVCAR3 was tested to be free of Mycoplasma and murine viruses using the IDEXX Impact 8 panel. Cells were cultured in RPMI 1640 media supplemented with 20% FBS for fewer than 5 passages after initial thawing and prior to cell implantation into immunodeficient mice. Cells were harvested and resuspended in sterile PBS containing 50% Matrigel. Ten million viable cells were injected at a volume of 0.2 ml per mouse into the flank of immunocompromised NSG mice (1 implant per animal). When tumors reached a mean volume of 200-300 mm^3, mice were randomized and treatments were initiated. Compounds were formulated in 10% HPBCD (hydroxypropyl beta cyclodextrin) and administered orally, twice a day, in a volume of 10 ml/kg. The dosing volume was adjusted based on individual mouse body weight on the day of dosing. Pharmacodynamic markers were evaluated on day 3.
For terminal PD biomarker analysis, mice were euthanized following 3 days of treatment (1 hour post 5th dose). […] RB phosphorylation levels of the resulting tumor protein lysates were then determined by MSD. […] Values were calculated and normalized to the untreated controls. […]

[2] = PK analysis of plasma in OVCAR3 xenograft study; assay type: in vivo, NSG mice; settings: 60 mg/kg BID oral, compared to Compound 1 and Compound 2 at 30 mg/kg BID
Experimental: as §1
For determination of compound plasma concentrations, serial blood collections were performed at designated timepoints after dosing. Blood was collected in EDTA-lined tubes and placed on wet ice. Within 30 minutes of collection, blood was centrifuged, and the plasma supernatants were aliquoted and stored at −20 C until analyzed. […] CDK2 inhibitor concentrations were measured by LC-MS/MS analysis on API 4500, API 5500+, or Sciex 7500 instruments. […]

[3] = target: CDK2/CyclinE1 (Homo sapiens, UniProt P24941); assay: CDKi biochemical assay (TR-FRET, phosphorylation of S780 on RB1 peptide); settings: CDK2/CyclinE1 100 pM, 1 mM ATP, 60 min at 25° C.
Summary of the method: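 CDK2/CyclinE1 (Avi-tag, 100 pM; CDK2 E. coli-expressed) phosphorylated His-MBP-RB1[773-924] (200 nM) at S780 with 1 mM ATP in HEPES pH 7.5/MgCl2/DTT, 60 min at 25° C. After EDTA quench, TR-FRET detection ran 3 h (Eu anti-p-RB S780, SA-APC). Apparent IC50 came from percent activity versus log concentration.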

[4] = target: CDK6/cyclinD3 (Homo sapiens, UniProt Q00534); assay: as above; settings: CDK6/cyclinD3 10 pM, 1 mM ATP, 60 min at 25° C.
Summary of the method: (§2)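 Avi-tagged, biotinylated CDK4/cyclinD1 (20 pM) or CDK6/cyclinD3 (10 pM) phosphorylates 200 nM His-MBP-RB1[773-924] at S780 with 1 mM ATP in HEPES pH 7.5/MgCl2, 60 min, 25° C. After EDTA quench, Eu anti-pRB(S780)/SA-APC TR-FRET is read after 3 h. Apparent IC50 comes from % activity versus log concentration.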

[5] = target: CDK4/cyclinD1 (Homo sapiens, UniProt P11802); assay: as above; settings: CDK4/cyclinD1 20 pM, 1 mM ATP, 60 min at 25° C.
Summary of the method: as §2

[6] = target: CDK1/CyclinB1 (Homo sapiens, UniProt P06493); assay: as above; settings: CDK1/CyclinB1 10 pM, 1 mM ATP, 60 min at 25° C.
Summary of the method: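 CDK1/CyclinB1 (10 pM, Avi-tagged, insect-cell expressed) phosphorylated S780 of His-MBP-RB1[773-924] (200 nM) with 1 mM ATP in HEPES pH 7.5, 10 mM MgCl2, 1 mM DTT, 60 min at 25 °C. After EDTA quench, TR-FRET detection (Eu anti-pRB S780, SA-APC) for 3 h; apparent IC50 from percent activity versus log concentration.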

| SMILES | inhibition at 30 mg/kg [1] [%] | IC50 [3] [µM] | IC50 [4] [µM] | IC50 [5] [µM] | IC50 [6] [µM] | further results |
| --- | --- | --- | --- | --- | --- | --- |
| COc1n[nH]cc1Nc1ncc2c(n1)N([C@@H]1CCC[C@@H](O)C1)C(=O)C21CC1 [Compound 1] | ~80 |  |  |  |  |  |
| CCOc1n[nH]cc1Nc1ncc2c(n1)N([C@@H]1CCC[C@@H](O)C1)C(=O)C21CC1 [Compound 2] | ~80 |  |  |  |  |  |
| CS(=O)(=O)N1CC[C@H](Nc2ncc3c(n2)N([C@@H]2CCC[C@@H](O)C2)C(=O)C32CC2)[C@H](F)C1 [Compound 3, reference compound] |  |  |  |  |  | exposure [2]: lower exposure; inhibition at 60 mg/kg ([1]; OVCAR-3, 60 mg/kg twice daily (BID) oral): ~50% |
| Cn1ncc(-c2n[nH]cc2Nc2ncc3c(n2)N([C@@H]2CCC[C@@H](O)C2)C(=O)C32CC2)c1C(F)(F)F [Example 84, 7′-((1R,3R)-3-hydroxycyclohexyl)-2′-((1′-methyl-5′-(trifluoromethyl)-1H,1′H-[3,4′-bipyrazol]-4-yl)amino)spiro[cyclopropane-1,5′-pyrrolo[2,3-d]pyrimidin]-6′(7′H)-one] |  | 0.088 | ≥ 10 | ≥ 10 | ≥ 10 |  |
| O=C1N([C@@H]2CCC[C@@H](O)C2)c2nc(Nc3c[nH]nc3OC3(CF)CC3)ncc2C12CC2 [Example 85, 2′-((3-(1-(fluoromethyl)cyclopropoxy)-1H-pyrazol-4-yl)amino)-7′-((1R,3R)-3-hydroxycyclohexyl)spiro[cyclopropane-1,5′-pyrrolo[2,3-d]pyrimidin]-6′(7′H)-one] |  | 0.027 | ≥ 10 | 4.4 | 1.71 |  |
